# Experimental data taken from article PMC12749748, “Chemically-induced degradation of the endoplasmic-reticulum stress sensor IRE1 by a VHL-recruiting chimera” (Nature Communications, 2025).
# Legend:
# Assay type in all cases: cell-based
# IRE1 H579A = target: T1, IRE1 H579A (Homo sapiens, UniProt O75460+P40337, H579A); experiment: NanoLuc signal IRE1 depletion, IRE1 H579A, HEK293T cells; conditions: HEK-293T
# T1 construct: N2731; host or cells: HEK293T
# Description: 8 × 10^5 293T cells per well were seeded in 6-well plates (Costar, #3516) and incubated at 37 °C, 5% CO2 for 6 h. A mixture of 0.2 µg ERN1 (IRE1)-NanoLuc Fusion Vector (Promega, NV1321), 2 µg HaloTag-VHL Fusion Vector (Promega, N2731), 6 µl FuGENE HD Transfection Reagent (Promega, E2311), and 100 µL Opti-MEM I reduced serum medium (Gibco, #31985062) per well was incubated at room temperature for 20 min before adding to cells. For expression of IRE1 mutants, site-directed mutagenesis was performed using the ERN1-NanoLuc Fusion Vector as the DNA template, and the transfection mixture was prepared in the same way as WT IRE1. After 18 h, cells from 6-well plates were trypsinized, resuspended in Opti-MEM I reduced serum medium, and reseeded into 96-well plates (Costar, #3917), with or without the addition of HaloTag NanoBRET 618 Ligand (Promega, G9801). After 18 h of incubation, a titration of G6374 (dilutions made in Opti-MEM I reduced serum medium) was added to the cells. After 2 h of G6374 treatment, NanoBRET Nano-Glo Substrate (Promega, N1571) was added to cells. The 96-well plates were imaged by GloMax Discover Microplate Reader (Promega, GM3000) with the default “BRET: NanoBRET 618” protocol (Donor: 450 BP; Acceptor: 600 LP; Integration: 0.3 s). Data analysis was performed according to the user manual.
# KMS27 cells = experiment: Incucyte cell confluency, KMS27 cells; conditions: KMS27 shIRE1 cells, titration
# Description: (§1) For non-adherent AMO1, KMS27, and OPM2 cells, cells were plated at 5000 cells/well in ultra-low attachment (ULA) 96-well plates (Costar, #7007) and centrifuged at 600 × g for 5 min for spheroid formation. For adherent U2OS and Colo201 cells, 2000 cells/well were seeded in a clear flat-bottom 96-well plate (Costar, #3595). Treatments were added at the time of cell seeding, and cells were cultured in complete RPMI media to a final volume of 200 µL/well. Cultures were maintained at 37 °C throughout the duration of the experiment. Cell confluency was tracked using the Incucyte live-cell imaging system (Sartorius S3). Picture frames were captured every 4 h with a 4× objective, and cell confluency (%) from the total well area as a function of time was calculated using the Incucyte software (version 2023 A Rev2).
# Colo201 cells = experiment: Incucyte cell confluency, Colo201 cells; conditions: Colo201 shIRE1 cells, titration
# Description: as §1
# IRE1 = IRE1 (Homo sapiens, UniProt O75460); experiment: IP-IB of K48-linked ubiquitination of endogenous IRE1 in AMO1 cells; parameters: Immunoblot (IB) analysis of endogenous IRE1 depletion in AMO1 cells; endogenous in cells; host or cells: AMO1; conditions: 3 µM, 2 h, compared to DMSO
# Description: Cells were lysed in buffer containing 20 mM HEPES 7.2, 150 mM NaCl, and 1% Triton X-100, supplemented with fresh protease and phosphatase inhibitors (Invitrogen, #78440), cleared by centrifugation at 12,000 × g for 10 min, and analyzed by BCA protein assay (Thermo Fisher Scientific, #23227). Equal protein amounts were loaded, separated by SDS-PAGE, electrotransferred to nitrocellulose membranes using the iBLOT2 system (Invitrogen), and blocked in 5% nonfat milk solution for 60 min. Membranes were probed with primary antibodies at 1:1000 dilution in 5% milk at 4 °C overnight. Signal was detected using appropriate horseradish peroxidase (HRP)-conjugated secondary antibodies at 1:10,000 in 5% milk at room temperature for 1–2 h. Bands were visualized by the Azure 600 western blot imaging system (Azure Biosystems). For in vitro ubiquitination assays performed with Me-Ub, bands were visualized by the Odyssey CLx Imager (LI‑COR) after incubating the blots with the IRDye 800CW (LI-COR) secondary antibodies at 1:10,000 in Intercept Blocking Buffer (LI-COR) at room temperature for 1–2 h.
# IRE1.LD antibodies were conjugated to agarose beads using the AminoLink® Plus Immobilization Kit (Thermo Fisher, #44894). […]
# Sequence of IRE1 (O75460 19-977): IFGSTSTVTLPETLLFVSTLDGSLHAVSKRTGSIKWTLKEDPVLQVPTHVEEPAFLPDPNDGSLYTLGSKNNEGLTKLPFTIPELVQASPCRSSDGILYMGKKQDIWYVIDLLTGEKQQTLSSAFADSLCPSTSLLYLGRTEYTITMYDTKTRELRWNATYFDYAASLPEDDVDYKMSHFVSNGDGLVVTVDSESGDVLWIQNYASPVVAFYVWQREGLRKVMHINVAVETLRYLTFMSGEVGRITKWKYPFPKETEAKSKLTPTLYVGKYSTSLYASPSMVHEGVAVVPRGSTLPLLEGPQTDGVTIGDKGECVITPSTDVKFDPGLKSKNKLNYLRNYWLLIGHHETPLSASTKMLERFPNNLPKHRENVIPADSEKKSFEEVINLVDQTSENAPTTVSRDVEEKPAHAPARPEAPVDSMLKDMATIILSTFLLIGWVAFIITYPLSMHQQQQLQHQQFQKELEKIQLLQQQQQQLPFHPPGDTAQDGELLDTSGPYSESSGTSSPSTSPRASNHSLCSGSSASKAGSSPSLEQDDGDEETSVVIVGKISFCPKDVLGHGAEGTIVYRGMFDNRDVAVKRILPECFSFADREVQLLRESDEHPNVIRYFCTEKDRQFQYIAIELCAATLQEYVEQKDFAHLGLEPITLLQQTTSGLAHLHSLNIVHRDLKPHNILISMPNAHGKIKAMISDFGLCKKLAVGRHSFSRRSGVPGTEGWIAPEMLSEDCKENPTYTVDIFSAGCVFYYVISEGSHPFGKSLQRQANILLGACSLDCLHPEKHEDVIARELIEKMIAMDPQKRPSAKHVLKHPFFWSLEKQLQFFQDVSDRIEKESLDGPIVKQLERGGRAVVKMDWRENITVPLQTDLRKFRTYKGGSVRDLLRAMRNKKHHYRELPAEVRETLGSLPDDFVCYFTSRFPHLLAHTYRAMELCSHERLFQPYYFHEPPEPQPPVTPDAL
# T1 sequence (O75460 19-977 H579A): as the sequence (O75460 19-977) above, with H561A counted along it
# T1 sequence (P40337 whole entry): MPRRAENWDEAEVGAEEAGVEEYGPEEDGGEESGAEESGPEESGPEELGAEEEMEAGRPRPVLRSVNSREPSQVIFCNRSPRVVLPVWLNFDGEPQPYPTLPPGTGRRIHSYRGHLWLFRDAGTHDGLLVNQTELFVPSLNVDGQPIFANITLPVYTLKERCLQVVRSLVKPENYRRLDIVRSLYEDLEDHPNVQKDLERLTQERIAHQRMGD
# T1 sequence (Q15369 whole entry partner): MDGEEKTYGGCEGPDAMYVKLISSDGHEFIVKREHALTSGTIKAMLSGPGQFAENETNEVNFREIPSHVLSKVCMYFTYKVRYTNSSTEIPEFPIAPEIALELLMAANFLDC
# T1 sequence (Q15370 whole entry partner): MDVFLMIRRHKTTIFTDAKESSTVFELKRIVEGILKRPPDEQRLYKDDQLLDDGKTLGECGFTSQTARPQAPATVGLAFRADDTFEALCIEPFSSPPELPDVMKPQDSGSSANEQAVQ
# T1 sequence (Q13617 whole entry partner): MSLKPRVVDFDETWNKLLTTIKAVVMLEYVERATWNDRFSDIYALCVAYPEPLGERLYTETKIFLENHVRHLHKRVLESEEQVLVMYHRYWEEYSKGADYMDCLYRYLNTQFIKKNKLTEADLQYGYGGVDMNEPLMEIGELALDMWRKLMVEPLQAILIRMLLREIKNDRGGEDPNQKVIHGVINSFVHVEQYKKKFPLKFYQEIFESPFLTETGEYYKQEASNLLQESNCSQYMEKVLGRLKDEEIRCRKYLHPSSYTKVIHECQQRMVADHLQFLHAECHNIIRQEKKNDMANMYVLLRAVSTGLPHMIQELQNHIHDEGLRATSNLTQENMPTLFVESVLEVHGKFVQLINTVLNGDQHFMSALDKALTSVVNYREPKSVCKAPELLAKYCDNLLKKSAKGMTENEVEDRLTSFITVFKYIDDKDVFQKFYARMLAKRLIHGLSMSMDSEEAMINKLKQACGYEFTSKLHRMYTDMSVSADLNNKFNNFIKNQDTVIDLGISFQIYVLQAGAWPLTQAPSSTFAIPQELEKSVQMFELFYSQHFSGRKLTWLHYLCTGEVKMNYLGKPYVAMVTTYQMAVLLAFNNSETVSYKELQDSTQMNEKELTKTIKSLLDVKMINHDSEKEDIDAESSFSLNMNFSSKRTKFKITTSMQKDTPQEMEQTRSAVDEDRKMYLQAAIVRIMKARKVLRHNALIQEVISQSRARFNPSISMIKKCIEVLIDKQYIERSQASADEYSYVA
# T1 sequence (P62877 whole entry partner): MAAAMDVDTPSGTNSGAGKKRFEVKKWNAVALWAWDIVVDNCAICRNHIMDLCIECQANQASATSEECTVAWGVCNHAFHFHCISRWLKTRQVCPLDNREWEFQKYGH
compound,measurement,setting,value
Cc1ncsc1-c1ccc(CNC(=O)[C@@H]2C[C@@H](O)CN2C(=O)[C@@H](NC(=O)CCCCN2CCN([C@H]3CC[C@H](Nc4ncc5ccc(=O)n(C(C)C)c5n4)CC3)CC2)C(C)(C)C)cc1 [G6374],Dmax,IRE1 H579A,27%
same,growth inhibition (cell confluency),KMS27 cells,concentration-dependent growth inhibition
same,proliferation rate (cell confluency),Colo201 cells,did not affect the proliferation rate
same,K48-linked ubiquitination of endogenous IRE1,IRE1,significant increase in K48-linked ubiquitination of endogenous IRE1
